Measurements as given in ChEMBL document CHEMBL3397032, “Computer-aided discovery of aminopyridines as novel JAK2 inhibitors” (Bioorg Med Chem, 2015).
Activity calls are given as the source filed them. The calls are words filed in the database; no cut-off is given here.

Columns and labels:
[1] = biological target: Tyrosine-protein kinase JAK2 (Homo sapiens, UniProt O60674); assay: Inhibition of IL4-induced JAK2 autophosphorylation in human HT-29 cells by SDS-polyacrylamide gel electrophoresis and Western blot method; assay type: cell-based
[2] = system: HT-29; assay: Effect on total JAK2 protein level in IL4-induced human HT-29 cells at 1 uM to 100 uM by SDS-polyacrylamide gel electrophoresis and Western blot method; assay type: functional, cell-based

Tyrosine-protein kinase JAK2, sequence (O60674 whole entry): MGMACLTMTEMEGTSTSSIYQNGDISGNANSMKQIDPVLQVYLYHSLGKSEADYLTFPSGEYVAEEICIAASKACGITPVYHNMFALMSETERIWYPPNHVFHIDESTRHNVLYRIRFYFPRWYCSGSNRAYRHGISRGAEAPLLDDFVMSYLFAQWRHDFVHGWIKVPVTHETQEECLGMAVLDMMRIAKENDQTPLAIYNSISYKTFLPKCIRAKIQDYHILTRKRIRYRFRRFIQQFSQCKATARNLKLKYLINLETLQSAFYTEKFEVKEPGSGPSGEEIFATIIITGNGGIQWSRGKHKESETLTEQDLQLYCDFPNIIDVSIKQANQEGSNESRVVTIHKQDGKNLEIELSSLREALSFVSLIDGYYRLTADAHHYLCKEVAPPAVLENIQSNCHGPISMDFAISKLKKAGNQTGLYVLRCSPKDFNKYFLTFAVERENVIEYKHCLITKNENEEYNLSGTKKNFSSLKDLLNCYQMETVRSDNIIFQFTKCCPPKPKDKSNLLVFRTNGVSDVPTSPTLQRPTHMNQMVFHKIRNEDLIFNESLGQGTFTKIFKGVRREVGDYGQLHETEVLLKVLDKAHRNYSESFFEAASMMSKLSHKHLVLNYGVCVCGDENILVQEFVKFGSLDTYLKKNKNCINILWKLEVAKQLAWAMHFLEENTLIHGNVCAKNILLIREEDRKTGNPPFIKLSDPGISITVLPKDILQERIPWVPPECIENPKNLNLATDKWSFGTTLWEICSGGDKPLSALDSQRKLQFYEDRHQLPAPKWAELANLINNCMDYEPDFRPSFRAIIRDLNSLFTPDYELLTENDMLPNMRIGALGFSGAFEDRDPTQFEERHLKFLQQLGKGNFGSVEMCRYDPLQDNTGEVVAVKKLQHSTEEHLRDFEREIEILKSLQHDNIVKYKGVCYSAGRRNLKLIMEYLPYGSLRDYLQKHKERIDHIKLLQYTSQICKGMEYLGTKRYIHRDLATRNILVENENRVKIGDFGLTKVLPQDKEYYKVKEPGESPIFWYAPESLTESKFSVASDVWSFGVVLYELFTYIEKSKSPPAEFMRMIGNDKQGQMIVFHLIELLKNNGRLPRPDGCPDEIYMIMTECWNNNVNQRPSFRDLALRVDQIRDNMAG

Row | SMILES | IC50 [1] [µM] | Activity [2]
1 | COc1cccc(NC(=O)c2cnc(N3CCN(c4ccccc4OC)CC3)c([N+](=O)[O-])c2)c1 | 9.5 | inactive
2 | COc1cccc(NC(=O)c2cnc(Nc3cccc(OC)c3)c([N+](=O)[O-])c2)c1 | 8.5 | inactive
3 | Cc1ccccc1S(=O)(=O)Nc1cnc(N2CCCCC2)c(C(=O)O)c1 | 6.9 | inactive
4 | CCCCN(C)c1ncc(NS(=O)(=O)c2ccccc2C)cc1C(=O)O |  | inactive
